US20250195521A1 (Revolution Medicines, Inc., priority 2020, published 2025)

Assays:
Assay type in all cases: biochemical
[1] = target: K-Ras G12C(GMP-PNP) binding to BRAF RBD (Homo sapiens (Human), UniProt P01116+P62937, G12C); assay: Disruption of BRAF RBD interaction with K-Ras (FRET / MOA assay), K-Ras G12C; settings: read-out: KRAS G12C FRET IC50
Summary of the method: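 TR-FRET readout: after 3 h compound incubation at 25 °C, anti-His Eu and anti-GST allophycocyanin (10 and 50 nM final) added for a further 1.5 h. Dilution series was 10-point, 3-fold, top 30 μM final. Ras–cyclophilin A ternary complex formation blocks the BRAF RBD interaction; IC50 derived from reduced FRET ratio relative to DMSO.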

[2] = target: KRAS G12S (Homo sapiens (Human), UniProt P01116+P62937, G12S); assay: Ras-Raf disruption/FRET/MOA assay (BRAF RBD, Cyclophilin A); settings: read-out: KRAS G12S FRET IC50
Summary of the method: (§1)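 Measured: compound-facilitated Cyclophilin A:Ras complex blocking RAF RBD binding. Conditions: 12.5 nM Ras-GMPPNP, 50 nM BRAF RBD, 25 μM CypA, 3 h plus 1.5 h detection. Output: IC50 from TR-FRET ratio.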

[3] = target: KRAS G12C (Homo sapiens (Human), UniProt P01116+P62937, G12C); assay: as above; settings: read-out: KRAS G12C FRET IC50
Summary of the method: as §1

[4] = target: KRAS G13D (Homo sapiens (Human), UniProt P01116+P62937, G13D); assay: as above; settings: read-out: KRAS G13D FRET data IC50
Summary of the method: as §1

[5] = target: KRAS G13C (Homo sapiens (Human), UniProt P01116+P62937, G13C); assay: as above; settings: read-out: KRAS G13C FRET IC50
Summary of the method: as §1

[6] = target: KRAS G12V (Homo sapiens (Human), UniProt P01116+P62937, G12V); assay: as above; settings: read-out: KRAS G12V FRET IC50
Summary of the method: as §1

[7] = target: KRAS G12D (Homo sapiens (Human), UniProt P01116+P62937, G12D); assay: as above; settings: read-out: KRAS G12D FRET IC50
Summary of the method: as §1

[8] = target: NRAS G12C (Homo sapiens (Human), UniProt P01111+P62937, G12C); assay: as above; settings: read-out: NRAS G12C FRET data IC50
Summary of the method: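 TR-FRET readout: anti-His Eu-W1024 (10 nM) and anti-GST allophycocyanin (50 nM) added after 3 h, 25° C compound incubation, then 1.5 h more. Decrease in FRET ratio versus DMSO wells marks Ras:RAF disruption; IC50 reported.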

[9] = target: KRAS G13C binding to BRAF RBD (Homo sapiens (Human), UniProt P01116+P62937, G13C); assay: Ras-Raf disruption/FRET/MOA assay, KRAS G13C
Source text: Disruption of B-Raf Ras-binding Domain (BRAF^RBD) Interaction with K-Ras by Compounds of the Invention (also called a FRET assay or an MOA assay)
Note—The following protocol describes a procedure for monitoring disruption of K-Ras G12C(GMP-PNP) binding to BRAF^RBD by a compound of the invention. This protocol may also be executed substituting other Ras proteins or nucleotides.
The purpose of this biochemical assay was to measure the ability of test compounds to facilitate ternary complex formation between a nucleotide-loaded K-Ras isoform and Cyclophilin A; the resulting ternary complex disrupts binding to a BRAF^RBD construct, inhibiting K-Ras signaling through a RAF effector. Data is reported as IC50 values.
In assay buffer containing 25 mM HEPES pH 7.3, 0.002% Tween20, 0.1% BSA, 100 mM NaCl and 5 mM MgCl2, tagless Cyclophilin A, His6-K-Ras-GMPPNP, and GST-BRAF^RBD were combined in a 384-well assay plate at final concentrations of 25 μM, 12.5 nM and 50 nM, respectively. Compound was present in plate wells as a 10-point 3-fold dilution series starting at a final concentration of 30 μM. After incubation at 25° C. for 3 hours, a mixture of Anti-His Eu—W1024 and anti-GST allophycocyanin was then added to assay sample wells at final concentrations of 10 nM and 50 nM, respectively, and the reaction incubated for an additional 1.5 hours. […] Compounds that facilitate disruption of a K-Ras: RAF complex were identified as those eliciting a decrease in the TR-FRET ratio relative to DMSO control wells.

[10] = target: KRAS G12S binding to BRAF RBD (Homo sapiens (Human), UniProt P01116+P62937, G12S); assay: Ras-Raf disruption/FRET/MOA assay, KRAS G12S
Summary of the method: (§2)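 First, test compounds in a 10-point 3-fold series (30 μM final top) were incubated for 3 hours at 25° C with nucleotide-loaded Ras, cyclophilin A and a BRAF RBD construct. Next, Eu anti-His and allophycocyanin anti-GST detection reagents were added for 1.5 hours. Finally, IC50s were derived from loss of TR-FRET signal against DMSO.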

[11] = target: KRAS G12V binding to BRAF RBD (Homo sapiens (Human), UniProt P01116+P62937, G12V); assay: Ras-Raf disruption/FRET/MOA assay, KRAS G12V; settings: read-out: KRAS G12V FRET IC50
Summary of the method: as §2

[12] = target: KRAS WT binding to BRAF RBD (Homo sapiens (Human), UniProt P01116+P62937); assay: Ras-Raf disruption/FRET/MOA assay, KRAS WT
Summary of the method: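 TR-FRET disruption assay: His6-tagged GMPPNP-loaded Ras (12.5 nM), GST-BRAF RBD (50 nM) and Cyclophilin A (25 μM) incubated with compound (10-point 3-fold series from 30 μM) 3 h at 25°C in HEPES pH 7.3 buffer with MgCl2 and NaCl. Anti-His Eu (10 nM)/anti-GST APC (50 nM) added, 1.5 h more; IC50 from FRET-ratio decrease versus DMSO.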

Sequence of NRAS G12C (P01111 whole entry G12C): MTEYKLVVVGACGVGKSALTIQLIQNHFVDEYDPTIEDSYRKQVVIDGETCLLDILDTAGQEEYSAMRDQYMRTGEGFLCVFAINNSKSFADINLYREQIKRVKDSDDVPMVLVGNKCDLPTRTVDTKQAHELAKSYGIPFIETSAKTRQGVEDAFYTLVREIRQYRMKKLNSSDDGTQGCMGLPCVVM
Sequence of NRAS G12C (P62937 whole entry): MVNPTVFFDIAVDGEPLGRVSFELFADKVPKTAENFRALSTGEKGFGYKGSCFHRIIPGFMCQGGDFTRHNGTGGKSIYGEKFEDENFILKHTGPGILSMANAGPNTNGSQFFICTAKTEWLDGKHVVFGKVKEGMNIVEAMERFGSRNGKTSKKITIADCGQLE
Sequence of KRAS G12C (P01116-2 other isoform, or with tags, fused parts or gaps G12C): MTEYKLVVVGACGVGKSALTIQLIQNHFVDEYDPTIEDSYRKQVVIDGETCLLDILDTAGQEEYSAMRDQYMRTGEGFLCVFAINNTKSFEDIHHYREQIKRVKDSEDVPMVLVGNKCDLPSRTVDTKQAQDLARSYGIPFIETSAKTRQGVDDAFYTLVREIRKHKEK
Sequence of KRAS G12C (P62937 whole entry): as the sequence (P62937 whole entry) above
Sequence of KRAS G13D (P01116 other isoform, or with tags, fused parts or gaps G13D): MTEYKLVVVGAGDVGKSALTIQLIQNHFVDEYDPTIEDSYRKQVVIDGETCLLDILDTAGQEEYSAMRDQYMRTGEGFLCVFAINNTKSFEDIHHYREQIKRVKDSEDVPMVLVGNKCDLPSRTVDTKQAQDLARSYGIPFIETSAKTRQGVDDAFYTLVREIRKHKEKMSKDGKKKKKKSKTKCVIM
Sequence of KRAS G13D (P62937 whole entry): as the sequence (P62937 whole entry) above
Sequence of KRAS G12V (P01116 other isoform, or with tags, fused parts or gaps G12V): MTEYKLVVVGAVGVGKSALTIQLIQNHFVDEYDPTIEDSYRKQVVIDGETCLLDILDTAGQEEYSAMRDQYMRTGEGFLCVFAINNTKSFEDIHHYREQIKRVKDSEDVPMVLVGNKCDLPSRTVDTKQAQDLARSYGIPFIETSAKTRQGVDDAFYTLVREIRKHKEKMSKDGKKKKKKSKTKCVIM
Sequence of KRAS G12V (P62937 whole entry): as the sequence (P62937 whole entry) above
Sequence of KRAS G12V binding to BRAF RBD (P01116 other isoform, or with tags, fused parts or gaps G12V): as the sequence (P01116 other isoform, or with tags, fused parts or gaps G12V) above
Sequence of KRAS G12V binding to BRAF RBD (P62937 whole entry): as the sequence (P62937 whole entry) above
Sequence of KRAS G13C binding to BRAF RBD (P01116 other isoform, or with tags, fused parts or gaps G13C): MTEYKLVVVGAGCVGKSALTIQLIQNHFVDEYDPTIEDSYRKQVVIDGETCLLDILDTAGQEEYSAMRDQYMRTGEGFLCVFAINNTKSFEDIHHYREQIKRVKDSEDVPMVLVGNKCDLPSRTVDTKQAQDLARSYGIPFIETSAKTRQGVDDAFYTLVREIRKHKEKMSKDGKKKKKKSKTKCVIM
Sequence of KRAS G13C binding to BRAF RBD (P62937 whole entry, the tested form may be a part): as the sequence (P62937 whole entry) above
Sequence of KRAS G13C (P01116 other isoform, or with tags, fused parts or gaps G13C): as the sequence (P01116 other isoform, or with tags, fused parts or gaps G13C) above
Sequence of KRAS G13C (P62937 whole entry): as the sequence (P62937 whole entry) above
Sequence of K-Ras G12C(GMP-PNP) binding to BRAF RBD (P01116 other isoform, or with tags, fused parts or gaps G12C): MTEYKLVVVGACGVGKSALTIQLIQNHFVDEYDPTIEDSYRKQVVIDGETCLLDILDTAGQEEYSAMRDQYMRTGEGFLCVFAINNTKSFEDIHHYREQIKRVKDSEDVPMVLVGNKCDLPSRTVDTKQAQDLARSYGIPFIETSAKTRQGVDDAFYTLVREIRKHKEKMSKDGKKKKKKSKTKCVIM
Sequence of K-Ras G12C(GMP-PNP) binding to BRAF RBD (P62937 whole entry): as the sequence (P62937 whole entry) above
Sequence of KRAS G12D (P01116 other isoform, or with tags, fused parts or gaps G12D): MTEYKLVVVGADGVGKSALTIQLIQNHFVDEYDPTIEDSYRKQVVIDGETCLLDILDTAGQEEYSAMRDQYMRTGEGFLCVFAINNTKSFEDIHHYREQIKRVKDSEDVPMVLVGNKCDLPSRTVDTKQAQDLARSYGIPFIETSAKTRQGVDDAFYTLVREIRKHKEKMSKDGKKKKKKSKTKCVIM
Sequence of KRAS G12D (P62937 whole entry): as the sequence (P62937 whole entry) above
Sequence of KRAS G12S (P01116 other isoform, or with tags, fused parts or gaps G12S): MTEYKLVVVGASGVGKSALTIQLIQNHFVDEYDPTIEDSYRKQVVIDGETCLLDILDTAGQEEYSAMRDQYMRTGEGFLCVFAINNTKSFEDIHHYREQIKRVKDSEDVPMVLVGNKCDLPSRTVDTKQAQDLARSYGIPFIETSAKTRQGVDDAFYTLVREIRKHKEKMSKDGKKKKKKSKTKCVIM
Sequence of KRAS G12S (P62937 whole entry): as the sequence (P62937 whole entry) above
Sequence of KRAS G12S binding to BRAF RBD (P01116 other isoform, or with tags, fused parts or gaps G12S): as the sequence (P01116 other isoform, or with tags, fused parts or gaps G12S) above
Sequence of KRAS G12S binding to BRAF RBD (P62937 whole entry): as the sequence (P62937 whole entry) above
Sequence of KRAS WT binding to BRAF RBD (P01116 other isoform, or with tags, fused parts or gaps): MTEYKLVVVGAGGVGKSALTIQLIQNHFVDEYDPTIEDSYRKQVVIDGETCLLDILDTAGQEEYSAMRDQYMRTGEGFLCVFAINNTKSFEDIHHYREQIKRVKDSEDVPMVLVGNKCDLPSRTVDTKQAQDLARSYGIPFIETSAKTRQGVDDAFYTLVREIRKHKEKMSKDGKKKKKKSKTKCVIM
Sequence of KRAS WT binding to BRAF RBD (P62937 whole entry): as the sequence (P62937 whole entry) above

IC50 [1] [nM]	IC50 [2] [nM]	IC50 [3] [nM]	IC50 [4] [nM]	IC50 [5] [nM]	IC50 [6] [nM]	IC50 [7] [nM]	IC50 [8] [nM]	IC50 [9] [nM]	IC50 [10] [nM]	IC50 [11] [nM]	IC50 [12] [nM]	Structure (SMILES)
< 10	1000 to 10000	100 to 1000	1000 to 10000	1000 to 10000	1000 to 10000	1000 to 10000	100 to 1000	< 10	10 to 100	10 to 100		CCn1c(-c2cccnc2[C@H](C)OC)c2c3cc(ccc31)-c1csc(n1)C[C@H](NC(=O)[C@H](C(C)C)N(C)C(=O)N1C[C@@H](C)N(C)C[C@@H]1C)C(=O)N1CCC[C@H](N1)C(=O)OCC(C)(C)C2 [Compound A292]
10 to 100	100 to 1000	10 to 100	100 to 1000	100 to 1000	100 to 1000	1000 to 10000	10 to 100	< 10	10 to 100	10 to 100	10 to 100	CCn1c(-c2cccnc2[C@H](C)OC)c2c3cc(ccc31)-c1csc(n1)C[C@H](NC(=O)[C@H](C(C)C)N(C)C(=O)N1CC(N3CCOCC3)C1)C(=O)N1CCC[C@H](N1)C(=O)OCC(C)(C)C2 [Compound A338]
